Laboratory results: PubChem BioAssay (NCI)
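Tested at 5 concentrations; 48 h exposure; 96-well plates; endpoints linearly interpolated, else capped at highest concentration. The concentration for full growth arrest is given as TGI.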

Key:
Assay in all cases: DTP human tumour cell line panel, 48 h
KM12 colon = test system: KM12 colon
RPMI-8226 leukemia = test system: RPMI-8226 leukemia
HOP-62 NSCLC = test system: HOP-62 NSCLC
MDA-N = test system: MDA-N
HS 578T breast = test system: HS 578T breast
T-47D breast = test system: T-47D breast
DU-145 prostate = test system: DU-145 prostate
OVCAR-4 ovarian = test system: OVCAR-4 ovarian
MDA-MB-435 = test system: MDA-MB-435
NCI/ADR-RES ovarian = test system: NCI/ADR-RES ovarian
MCF7 breast = test system: MCF7 breast
KM20L2 colon = test system: KM20L2 colon
DMS 273 small cell lung = test system: DMS 273 small cell lung
IGROV1 ovarian = test system: IGROV1 ovarian
LXFL 529 NSCLC = test system: LXFL 529 NSCLC
XF 498 CNS = test system: XF 498 CNS
NCI-H522 lung = test system: NCI-H522 lung
DLD-1 colon = test system: DLD-1 colon
M19-MEL melanoma = test system: M19-MEL melanoma
DMS 114 small cell lung = test system: DMS 114 small cell lung

| Structure (SMILES) | TGI (KM12 colon) | TGI (RPMI-8226 leukemia) | TGI (HOP-62 NSCLC) | TGI (MDA-N) | TGI (HS 578T breast) | TGI (T-47D breast) | TGI (DU-145 prostate) | TGI (OVCAR-4 ovarian) | TGI (MDA-MB-435) | TGI (NCI/ADR-RES ovarian) | TGI (MCF7 breast) | TGI (KM20L2 colon) | TGI (DMS 273 small cell lung) | TGI (IGROV1 ovarian) | TGI (LXFL 529 NSCLC) | TGI (XF 498 CNS) | TGI (NCI-H522 lung) | TGI (DLD-1 colon) | TGI (M19-MEL melanoma) | TGI (DMS 114 small cell lung) |
| --- | --- | --- | --- | --- | --- | --- | --- | --- | --- | --- | --- | --- | --- | --- | --- | --- | --- | --- | --- | --- |
| Cc1cn(C2CC(n3cc(Cn4ccc(=O)[nH]c4=O)nn3)C(CO)O2)c(=O)[nH]c1=O (centres undefined) | > 100 µM | > 100 µM | > 100 µM | > 100 µM | > 100 µM | > 100 µM | > 100 µM | > 100 µM | > 100 µM | > 100 µM | > 100 µM |  |  |  |  |  |  |  |  |  |
| C=C(/C=C/C=C(\C)CCC=C(C)C)[C@@H]1CC[C@]2([C@H](CCCO)/C(=C(/C)C=O)CC[C@]2(C)O)[C@@H]1O | 15.4 µM |  |  |  |  |  |  |  |  |  |  | > 100 µM | 27.9 µM | 81.1 µM | 33.7 µM | 32.8 µM | 33 µM | 38.7 µM |  |  |
| O=C1c2ccccc2N(O)C1(c1ccccc1)C1CCCC=C1N1CCOCC1 (centres undefined) |  | > 100 µM | > 100 µM |  |  |  |  |  |  |  |  | > 100 µM | > 100 µM | > 100 µM | > 100 µM |  | 73 µM | > 100 µM | > 100 µM | > 100 µM |
